Assay results from publication PMC8838898, “Identification of Novel Cannabinoid CB2 Receptor Agonists from Botanical Compounds and Preliminary Evaluation of Their Anti-Osteoporotic Effects” (Molecules, 2022).

Columns and labels:
CB2R = target: T1, CB2R (Homo sapiens, UniProt P34972); test: double luciferase reporter screening system in HEK293-CB2 cells; format: cell-based; settings: 1 μM, 6-h treatment
T1 construct: expressed in transfected cells; host or cells: HEK293 cells stably transfected with pIRES2-EGFP-CB2, pGL4.29 [luc2P/CRE/Hygro] and pRL-TK
T1 sequence (P34972 whole entry): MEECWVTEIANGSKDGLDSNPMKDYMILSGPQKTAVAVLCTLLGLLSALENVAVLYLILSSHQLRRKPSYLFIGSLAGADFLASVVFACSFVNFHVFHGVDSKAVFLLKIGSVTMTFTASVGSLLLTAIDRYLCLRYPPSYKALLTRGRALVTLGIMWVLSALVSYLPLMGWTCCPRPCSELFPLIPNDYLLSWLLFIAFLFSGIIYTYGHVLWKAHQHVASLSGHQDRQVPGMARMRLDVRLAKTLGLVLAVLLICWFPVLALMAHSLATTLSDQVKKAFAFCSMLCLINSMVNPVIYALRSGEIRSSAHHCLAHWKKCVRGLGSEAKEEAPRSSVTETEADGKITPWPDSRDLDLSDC
Description: To generate the HEK293-CB2 cells, 5 × 10^5 HEK293 cells were cultured in a 60 mm culture dish for 12 h, washed with PBS, and then transfected with Lipofectamine 3000 reagent containing a test reporter plasmid, control reporter plasmid encoding Renilla luciferase, and effector plasmid. The ratio of the transfection plasmid pIRES2-EGFP-CB2, pGL4.29 [luc2P/CRE/Hygro], and pRL-TK was 2 μg, 10 μg, and 1μg, respectively. After a 24-htransfection, cells were selected and cultured in the medium containing G418 (800 μg·mL^−1) and hygromycin (400 μg·mL^−1) for two weeks. The surviving cells were picked and expanded as HEK293-CB2R cells.
Several aspects of the high-throughput screening system were optimized to ensure efficient and accurate application of the system for high-throughput data collection. To conduct high-throughput assays in 96-well plates, the number of cells seeded per well, incubation time, drug and AM630 concentrations, and the DMSO content were optimized. The dual luciferase assay was performed as described previously. […] Subsequently, the quantitative evaluation indexes of the high-throughput screening system, including the signal-to-background ratio, S/B = Msignal/Mbackground; signal window, SW = Msignal − Mbackground; signal-to-noise ratio, S/N = (Msignal − Mbackground)/SDbackground; signal background coefficient of variation, CV(%) = 100 × SDsignal/Msignal; and Z’ factor were determined to ensure its efficient and accurate application of the system in high-throughput data collection. Here, Z′ = 1 − 3(SDsignal + SDbackground)/|Msignal − Mbackground| [25], where M represents an average of the relative luminescence value and SD is the standard deviation of M.
The HEK293-CB2 cells from 10–40 passages were separately inoculated into 96-well plates at 5 × 10^3 cells per well. […] The results were expressed as relative luminescence values.
The HEK293-CB2 cells were inoculated on a 96-well culture plate with a density of 5 × 10^3 cells per well. […] The relative luminescence value was used to express the expression of CB2R.
Furthermore, the activation of the compounds on CB2R was also verified by using the CB2R inverse agonist AM630. The HEK293-CB2 cells were inoculated on a 6-well culture plate at a density of 5 × 10^4 cells per well. […] The expression of the CB2R gene is expressed by the relative luminescence value.

[1] = system: osteoclasts derived from RAW264.7 cells; test: F-actin ring formation assay in osteoclasts; format: cell-based, murine
Description: RAW264.7 cells were incubated in a confocal culture dish (diameter, 35 mm) at adensity of 5 × 10^4 cells·dish^−1 for 24 h, treated with 25 ng·mL^−1 RANKL and the screened compounds for five days, fixed with 4% paraformaldehyde for 30 min, stained with 5 μg·mL^−1 rhodamine-conjugated phalloidin (Sigma-Aldrich Chemical Co.) at 37 °C for 40 min, washed with PBS again, and stained again with 4′,6-diamidino-2-phenylindole (DAPI, Beyotime, Shanghai, China) for 10 min at room temperature (Li et al., 2018). The F-actin ring of the osteoclasts was observed under a fluorescent microscope (Axiovert 200, Carl Zeiss, Oberkochen, Germany). The fluorescence images of the cells were processed using Zeiss ZEN software.

RAW264.7 macrophages = test: viability of RAW264.7 macrophages (CCK8); format: cell-based, murine; settings: 1 μM, three days
Description: The murine macrophage RAW264.7 cell line, which has the potential to differentiate into osteoclasts under the induction of RANKL, was obtained from the Cell Bank of the Chinese Academy of Sciences (Shanghai, China). The cells were cultured in DMEM containing 10% (v/v), 1% (v/v) penicillin, and streptomycin (Beyotime, Shanghai, China) at 37 °C in humidified air with 5% CO2, and then subcultured every two days. For induction of the osteoclasts, RAW264.7 cells were incubated with 25 ng·mL^−1 RANKL for 72 h. Osteoclasts were identified by TRAP staining.
RAW264.7 cells were inoculated in a 96-well plate at a density of 1 × 10^4 cells per well. After a 24-h culture at 37 °C, cells were treated with the test compounds for 48 h and cell viability was determined with the CCK-8 kit according to the instructions. RAW264.7 cells were inoculated on a 96-well culture plate at a density of 1 × 10^4 cells per well, induced with […] of nuclear factor-κB receptor activator ligand (RANKL) to differentiate into osteoclasts for 72 h. […] The reaction was terminated with 1 mol·L^−1 of NaOH solution (100 μL per well) and the absorbance was determined at a wavelength of 405 nm. […]

Question: With `CCCCCCC(C)(C)c1cc(OC)c([C@@H]2C=C(CO)[C@@H]3C[C@H]2C3(C)C)c(OC)c1` [HU308] as the compound, how does the “luciferase activity of HEK293-CB2 cells of passages 10, 15, 25, 35 and 40” value (CB2R) read?
Answer: The value was “significantly increased”.

Question: What about the “reversal of the F-actin ring effect by AM630” value ([1]; 1 μM AM630) of the same compound?
Answer: Its value is “could also be reversed by AM630”.

Question: And the “formation of the F-actin ring in osteoclasts” value ([1]; five-day treatment, phalloidin staining)?
Answer: The value was “decreased the formation of the F-actin ring”.

Question: And the “viability of RAW264.7 macrophages” value (RAW264.7 macrophages)?
Answer: Its value is “had no inhibitory effects on the viability”.
